Tested on: adjuvant-associated biological themes in LV, SP, LN
Conditions: LV, ID
From the text: A defined sets of genes were selected according to specified criteria (e.g., FC, PA-call, threshold values). Their functional enrichment values were then obtained from TargetMine (Chen, Y. A., Tripathi, L. P. & Mizuguchi, K. PloS one 6, e17844 (2011)) (http://targetmine.mizuguchilab.org/) using the API interface. The following resources were used throughout the analysis via TargetMine Interface (GO, GOSlim, Integrated Pathway, KEGG, Reactome, and the NCI pathway). The Holm-Bonferroni method was used for multiple testing corrections.
Whole organ transcriptome data for each organ from each mouse were analyzed as follows to obtain biological themes for individual samples from each adjuvant-administered group of three mice. […] A set of Pj genes was first defined, where eij/ei(c)>2.0. Biological themes enriched within Pj were then identified using TargetMine (Chen, Y. A. et al., PloS one 6, e17844 (2011)) (http://targetmine.mizuguchilab.org/). Tj denote the resulting list of biological themes, with associated p-values from Fischer's exact test.
Next, the biological themes called by all the individual samples in the group were scored as follows. Having obtained three lists (T1, T2 and T3) for a given experimental condition, a consensus list T of themes was created as T={(t1, p1), (t2, p2), . . . }, where ti is a biological theme that appears in all of T1, T2 and T3, and pi is the smallest of the associated p-values. Only the themes with the p-value of <0.05 were included in T.
To summarize the biological themes in T further, a list of terms considered to be associated with adjuvant activity in general was separately prepared. AT={at1, at2, . . . }, where ati is a pre-selected adjuvant-associated term (e.g., “stress” or “cytokine”). Finally, an enrichment score S for an adjuvant-associated term ati was defined as: S(ati)=Σ−log(pj), where the name of tj in T includes a term ati as a substring and pj is the associated p-value.
This scoring scheme summarizes the relative enrichment of pre-selected adjuvant-associated terms in genes responding to each adjuvant in each organ.

## Poly_IC
  IFN alpha, GO annotation line 1 of 5: 13.3
  IFN alpha, GO annotation line 2 of 5: 4.7
  IFN alpha: cellular response to interferon-alpha: 4.95
  IFN alpha: positive regulation of interferon-alpha production: 5.95
  IFN alpha: regulation of interferon-alpha production: 5.3
  IFN beta: cellular response to interferon-beta: 17.2
  IFN beta: interferon-beta production: 9.35
  IFN beta: positive regulation of interferon-beta production: 8.94
  IFN beta: regulation of interferon-beta production: 7.54
  IFN beta: response to interferon-beta: 23
  IFN gamma: cellular response to interferon-gamma: 10.5
  IFN gamma: interferon-gamma production: 5.43
  IFN gamma: regulation of interferon-gamma production: 5.32
  IFN gamma: response to interferon-gamma: 22.3
  NF-kappa B signaling pathway, GO annotation line 1 of 4: 18
  NF-kappa B signaling pathway, GO annotation line 2 of 4: 13.5
  NF-kappa B signaling pathway, GO annotation line 3 of 4: 8.57
  NF-kappa B signaling pathway, GO annotation line 4 of 4: 9.04
  TNF signaling pathway: 22.1
  adaptive immune response, GO annotation line 1 of 5: 11.9
  adaptive immune response, GO annotation line 2 of 5: 13
  adaptive immune response, GO annotation line 3 of 5: 7.16
  adaptive immune response, GO annotation line 4 of 5: 6.84
  adaptive immune response, GO annotation line 5 of 5: 0
  apoptosis, GO annotation line 1 of 8: 15.7
  apoptosis, GO annotation line 2 of 8: 14.8
  apoptosis, GO annotation line 3 of 8: 12.4
  apoptosis, GO annotation line 4 of 8: 7.32
  apoptosis, GO annotation line 5 of 8: 3.59
  apoptosis, GO annotation line 6 of 8: 7.04
  apoptosis, GO annotation line 7 of 8: 4.79
  apoptosis, GO annotation line 8 of 8: 0
  cell death, GO annotation line 1 of 9: 22.6
  cell death, GO annotation line 2 of 9: 17.8
  cell death, GO annotation line 3 of 9: 18.1
  cell death, GO annotation line 4 of 9: 15.4
  cell death, GO annotation line 5 of 9: 15.6
  cell death, GO annotation line 6 of 9: 4.25
  cell death, GO annotation line 7 of 9: 3.46
  cell death, GO annotation line 8 of 9: 4.38
  cell death, GO annotation line 9 of 9: 4.89
  chemokine, GO annotation line 1 of 4: 6.25
  chemokine, GO annotation line 2 of 4: 7.84
  chemokine, GO annotation line 3 of 4: 9.13
  chemokine, GO annotation line 4 of 4: 9
  chemotaxis, GO annotation line 1 of 11: 20.7
  chemotaxis, GO annotation line 2 of 11: 6.87
  chemotaxis, GO annotation line 3 of 11: 22
  chemotaxis, GO annotation line 4 of 11: 13.1
  chemotaxis, GO annotation line 5 of 11: 6.8
  chemotaxis, GO annotation line 6 of 11: 7.42
  chemotaxis, GO annotation line 7 of 11: 7.6
  chemotaxis, GO annotation line 8 of 11: 8.31
  chemotaxis, GO annotation line 9 of 11: 9.92
  chemotaxis, GO annotation line 10 of 11: 6.5
  chemotaxis, GO annotation line 11 of 11: 3.15
  cytokine, GO annotation line 1 of 17: 66.1
  cytokine, GO annotation line 2 of 17: 48.5
  cytokine, GO annotation line 3 of 17: 42.3
  cytokine, GO annotation line 4 of 17: 12.1
  cytokine, GO annotation line 5 of 17: 45.6
  cytokine, GO annotation line 6 of 17: 43.5
  cytokine, GO annotation line 7 of 17: 20.9
  cytokine, GO annotation line 8 of 17: 7.3
  cytokine, GO annotation line 9 of 17: 8.4
  cytokine, GO annotation line 10 of 17: 34.3
  cytokine, GO annotation line 11 of 17: 12.6
  cytokine, GO annotation line 12 of 17: 4.18
  cytokine, GO annotation line 13 of 17: 15
  cytokine, GO annotation line 14 of 17: 14.5
  cytokine, GO annotation line 15 of 17: 3.4
  cytokine, GO annotation line 16 of 17: 3.66
  cytokine, GO annotation line 17 of 17: 5.29
  defense response, GO annotation line 1 of 11: 90.6
  defense response, GO annotation line 2 of 11: 57.5
  defense response, GO annotation line 3 of 11: 41.3
  defense response, GO annotation line 4 of 11: 48.9
  defense response, GO annotation line 5 of 11: 15.8
  defense response, GO annotation line 6 of 11: 6.93
  defense response, GO annotation line 7 of 11: 4.67
  defense response, GO annotation line 8 of 11: 25.8
  defense response, GO annotation line 9 of 11: 6.75
  defense response, GO annotation line 10 of 11: 4.62
  defense response, GO annotation line 11 of 11: 0
  immune response, GO annotation line 1 of 8: 79.8
  immune response, GO annotation line 2 of 8: 35.5
  immune response, GO annotation line 3 of 8: 39.5
  immune response, GO annotation line 4 of 8: 23.2
  immune response, GO annotation line 5 of 8: 20.5
  immune response, GO annotation line 6 of 8: 23.7
  immune response, GO annotation line 7 of 8: 3.8
  immune response, GO annotation line 8 of 8: 4.58
  inflammatory response, GO annotation line 1 of 5: 32.2
  inflammatory response, GO annotation line 2 of 5: 14.4
  inflammatory response, GO annotation line 3 of 5: 5.99
  inflammatory response, GO annotation line 4 of 5: 0
  inflammatory response, GO annotation line 5 of 5: 0
  innate immune response, GO annotation line 1 of 6: 59.5
  innate immune response, GO annotation line 2 of 6: 40.7
  innate immune response, GO annotation line 3 of 6: 27.7
  innate immune response, GO annotation line 4 of 6: 23.3
  innate immune response, GO annotation line 5 of 6: 18.5
  innate immune response, GO annotation line 6 of 6: 7.74
  interleukin-6: interleukin-6 production: 9.62
  interleukin-6: positive regulation of interleukin-6 production: 5.06
  interleukin-6: regulation of interleukin-6 production: 10.2
  interleukin-12: interleukin-12 production: 6.82
  interleukin-12: positive regulation of interleukin-12 production: 4.28
  interleukin-12: regulation of interleukin-12 production: 7.39
  migration, GO annotation line 1 of 10: 22.1
  migration, GO annotation line 2 of 10: 6.99
  migration, GO annotation line 3 of 10: 23.4
  migration, GO annotation line 4 of 10: 18.5
  migration, GO annotation line 5 of 10: 9
  migration, GO annotation line 6 of 10: 9.34
  migration, GO annotation line 7 of 10: 8.14
  migration, GO annotation line 8 of 10: 7.59
  migration, GO annotation line 9 of 10: 6.05
  migration, GO annotation line 10 of 10: 3.46
  stress, GO annotation line 1 of 3: 58.8
  stress, GO annotation line 2 of 3: 40.8
  stress, GO annotation line 3 of 3: 5.39
  wounding, GO annotation line 1 of 3: 16.7
  wounding, GO annotation line 2 of 3: 14.8
  wounding, GO annotation line 3 of 3: 9.8

— patent US20230021483A1, “[…] […] METHOD AND CLASSIFICATION OF PHARMACEUTICAL COMPONENTS BY USING TRANSCRIPTOMES” (National Institutes of Biomedical Innovation, Health and …, priority 2016, published 2023)
